Data as given in article PMC11321638 (Advanced Science, 2024).
No end group written: not given here.

How the values were obtained:
protease K [1] = biological target: T1, protease K (Parengyodontium album, UniProt P06873); assay: in vitro; details: isolated enzyme
protease K [2] = biological target: T1, protease K
BALB/c mice = details: mouse, in vivo, sc

T1 sequence (P06873 106-384 limits assumed): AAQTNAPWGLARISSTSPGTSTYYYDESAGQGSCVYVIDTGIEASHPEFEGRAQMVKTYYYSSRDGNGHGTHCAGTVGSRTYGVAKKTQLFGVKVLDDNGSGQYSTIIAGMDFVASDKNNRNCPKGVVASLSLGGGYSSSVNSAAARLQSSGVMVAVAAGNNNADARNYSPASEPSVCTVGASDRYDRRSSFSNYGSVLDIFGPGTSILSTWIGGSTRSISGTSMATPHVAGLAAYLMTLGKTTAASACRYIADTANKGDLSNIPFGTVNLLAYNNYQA

In the case of SEFMRNALEEMLRRA-NH2 [RSIpep], the half-life (protease K [1]) is reported as 37.2 ± 1.8 min, the “t1/2 with protease K” value (protease K [2]) is reported as “less than 1 h” and the “pathological section analysis of heart, liver, spleen, lung, kidney” value (BALB/c mice) is reported as “no discernible pathological alterations”.
